# Values joined by “and” are separate entries in the source; they are usually repeats but may differ in a detail not shown here. Identical values can stand only once. Like-named read-outs stand apart in the source and are kept apart here.
# How the values were obtained:
# [1] = set-up: method as in PMID 32820094; conditions: cited from earlier work
# MC38 tumours = conditions: for Tumor Size: individual mice, * = excluded once a death was recorded in the group
# serum cytokines = assay: Multiplexed cytokine profiling of sera, MC38 model; type: in vivo, C57BL/6 mice; conditions: sera obtained on Day 9, PBS = 1
# Description: This study used Luminex xMAP technology for multiplexed quantification of 44 mouse cytokines, chemokines and growth factors. The multiplexing analysis was performed using the Luminex 200 system (Luminex) by Eve Technologies Corp. […] markers were simultaneously measured in the samples using Eve Technologies’ Mouse Cytokine 44-Plex Discovery Assay, which consists of two separate kits, one 32-plex and one 12-plex (MilliporeSigma), following the manufacturer’s protocol. […] The sensitivities of individual analytes are available in the MilliporeSigma MILLIPLEX MAP protocol. […] MC-38 cells were inoculated into the right flank of C57BL/6 mice and treated once tumors reached about 90 mm^3. […] Source data
# THP-1 cells = assay: Dilution limits of N1/E4 combination to activate THP-1 cells (IFN-β ELISA)
# [2] = LC–MS/MS analysis of in situ SC2S formation (tissue distribution); type: in vivo, BALB/c mice; conditions: for concentration at 4 h / concentration at 2 h / concentration at 1 h: BALB/c, mouse
# Description: The blood, tumour, lung, kidney, liver and spleen were collected for each mouse. Three mice treated with vehicle were included as control samples. Whole blood samples were centrifuged at 2,000g, 4 °C for 10 min. Supernatant plasma was aspirated into an Eppendorf tube and frozen at −80 °C. Tumour and organ tissues were snap-frozen in liquid nitrogen and stored at −80 °C until further analysis. The plasma samples (10-µl aliquots) were prepared by protein precipitation extraction. The organic layer was evaporated to dryness and reconstituted in a solution equivalent to the initial chromatographic starting conditions. The tissue samples were analysed by homogenization to give a 200 […] concentration. The homogenised tissue samples (10-µl aliquots) were then taken through the same preparation procedure as the plasma samples. All samples were analysed using the PKB Core Facility’s 6500 LC–MS/MS system, in negative ion mode. The chromatography was carried out using a gradient method on a Kinetex EVO C18 column (50 × 2.1 mm). Analysis was conducted in four batches, consisting of calibration standards, quality control samples, blank control samples, internal standard-only samples and study samples. Calibration curves were constructed using linear regression with a 1/x^2 weighting. A calibration range of 1–500 ng ml^−1 (5–2,500 ng g^−1 in tissue) was used. Precision and accuracy were well within the PK/B core facility’s acceptance criteria of ±20%. The LC–MS/MS method was developed and qualified ahead of the sample analysis. The performance of the method met normal Core Facility acceptance criteria for analysis.
# [3] = system: STING pathway effectors (pSTING, pTBK1, pIRF3) in THP-1 Lucia ISG cells; assay: Western blots of STING pathway activation; type: cell-based, human; conditions: 5 μM
# Description: THP-1 Lucia ISG cells were maintained as described above. […] Cells were treated with cycloheximide (50 µg ml^−1) and incubated for 50 min at 37 °C. Treated cells were then combined with the growth medium containing SC2S dimer (5 µM final concentration) to 1 × 10^6 cells ml^−1 and incubated at 37 °C. At each timepoint, a portion (3 ml) of the cell suspension was withdrawn. Withdrawn cells were pelleted (300g, 3 min), washed with PBS (1 ml), pelleted again (300g, 3 min) and resuspended to a density of 1 × 10^7 cells ml^−1 in ice-cold lysis buffer (25 mM Tris pH 7.6, 150 mM NaCl, 1% NP-40, 1% sodium deoxycholate and 0.1% SDS) supplied with protease/phosphatase inhibitor tablets (Pierce A32961) and freshly prepared phenylmethylsulfonyl fluoride (1 mM). Lysates were further disrupted by sonication at low power (5 s × 3 cycles). Sonicated lysates were clarified by centrifugation at 4 °C (13,000g, 5 min). […] Samples were reduced and denatured at 95 °C for 5 min before being separated on a precast polyacrylamide gel (Invitrogen NuPAGE 4–12% Bis-Tris, 20 µg total protein per lane). Protein bands were then transferred to a polyvinylidene difluoride membrane (Invitrogen iBlot2). […]
smiles,measurement,setting,value
COc1cc2cc(C(=O)CCC(=O)O)sc2cc1OC [MSA2],tumour and plasma concentration after intratumoural injection,[1],"its concentration in the tumour decreased rapidly past the 2-h timepoint, and substantial leakage into the plasma occurred"
same,Tumor Size,MC38 tumours; day 39,279.4986* mm^3
same,Tumor Size,MC38 tumours; day 53,0* mm^3
same,Survival: Days,"MC38 tumours; mouse, in vivo",60 days and 49 days and 35 days
same,CCL3,serum cytokines,1.442
same,CCL4,serum cytokines,0.7068
same,CCL12,serum cytokines,5.215
same,CXCL2,serum cytokines,1.851
same,EPO,serum cytokines,1.36
same,G-CSF,serum cytokines,2.042
same,IFNγ,serum cytokines,0.4672
same,IL-1β,serum cytokines,1.9772
same,IL-3,serum cytokines,0.512
same,IL-6,serum cytokines,4.186
same,IL-12p40,serum cytokines,0.2035
same,IL-12p70,serum cytokines,1.442
same,IL-15,serum cytokines,0.4244
same,IL-16,serum cytokines,1.895
same,IL-17,serum cytokines,1.777
same,M-CSF,serum cytokines,0.6463
same,TARC,serum cytokines,1.519
COc1cc2sc(C(=O)CCC(=O)O)cc2cc1SCCSc1cc2cc(C(=O)CCC(=O)O)sc2cc1OC [SC2S],"Response from SC2S, OD 450",THP-1 cells; 0.195312 uM,0.075
same,"Response from SC2S, OD 450",THP-1 cells; 0.390625 uM,0.634
same,"Response from SC2S, OD 450",THP-1 cells; 0.78125 uM,1.146
same,"Response from SC2S, OD 450",THP-1 cells; 1.5625 uM,2.392
same,"Response from SC2S, OD 450",THP-1 cells; 3.125 uM,2.683
same,"Response from SC2S, OD 450",THP-1 cells; 6.25 uM,2.764
same,"Response from SC2S, OD 450",THP-1 cells; 12.5 uM,2.752
same,"Response from SC2S, OD 450","THP-1 cells; 25 uM, defined as 100% activation",2.757
same,Blood Calculated Concentration,"[2]; 1h, individual samples",BLQ
same,Kidney Calculated Concentration,"[2]; 1h, individual samples",BLQ
same,Lung Calculated Concentration,"[2]; 1h, individual samples",BLQ
same,Tumour Calculated Concentration,"[2]; 1h, individual samples",64.6 ng/mL and 323 ng/g and 11.6 ng/mL and 58.1 ng/g and 12.1 ng/mL and 60.6 ng/g
same,Blood Calculated Concentration,"[2]; 2h, individual samples",BLQ
same,Liver Calculated Concentration,"[2]; 2h, individual samples",BLQ
same,Spleen Calculated Concentration,"[2]; 2h, individual samples",BLQ
same,Tumour Calculated Concentration,"[2]; 2h, individual samples",17.8 ng/mL and 89.2 ng/g and 62.2 ng/mL and 311 ng/g and 4.45 ng/mL and 22.2 ng/g
same,Kidney Calculated Concentration,"[2]; 4h, individual samples",BLQ
same,Spleen Calculated Concentration,"[2]; 4h, individual samples",BLQ
same,Tumour Calculated Concentration,"[2]; 4h, individual samples",12.1 ng/mL and 60.4 ng/g and 19.6 ng/mL and 98.2 ng/g and 4.66 ng/mL and 23.3 ng/g
same,Kidney Calculated Concentration,"[2]; 8h, individual samples",BLQ
same,Liver Calculated Concentration,"[2]; 8h, individual samples",BLQ
same,Spleen Calculated Concentration,"[2]; 8h, individual samples",BLQ
same,Tumour Calculated Concentration,"[2]; 8h, individual samples",BLQ
same,Kidney Calculated Concentration,"[2]; 24h, individual samples",BLQ
same,Spleen Calculated Concentration,"[2]; 24h, individual samples",BLQ
same,concentration at 4 h,"[2]; liver, 4h, read-out: Liver Mean concentration",9.3 ng/g
same,concentration at 4 h,"[2]; liver, other: β-GlcA-N1 intraperitoneal (IP) + E4 intratumoral (IT), 4h, individual samples, read-out: Liver Calculated Concentration",1.86 ng/mL and 9.3 ng/g
same,concentration at 2 h,"[2]; plasma, 2h, individual samples, read-out: Blood Calculated Concentration",3.03 ng/mL
same,concentration at 2 h,"[2]; plasma, 2h, read-out: Blood Mean concentration",3.03 ng/mL
same,concentration at 1 h,"[2]; plasma, other: β-GlcA-N1 intraperitoneal (IP) + E4 intratumoral (IT), 1h, individual samples, read-out: Blood Calculated Concentration",1.29 ng/mL
same,concentration at 1 h,"[2]; plasma, other: β-GlcA-N1 intraperitoneal (IP) + E4 intratumoral (IT), 1h, read-out: Blood Mean concentration",1.29 ng/mL
same,concentration at 2 h,"[2]; tumour, 2h, read-out: Tumour Mean concentration",141 ng/g
same,concentration at 4 h,"[2]; tumour, 4h, read-out: Tumour Mean concentration",60.7 ng/g
same,concentration at 1 h,"[2]; tumour, other: β-GlcA-N1 intraperitoneal (IP) + E4 intratumoral (IT), 1h, read-out: Tumour Mean concentration",147 ng/g
same,phosphorylation of major STING pathway proteins,[3],confirmed the phosphorylation of major STING pathway proteins

# Source: publication PMC12669040, “Tumour-specific STING agonist synthesis via a two-component prodrug system” (Nature Chemistry, 2025)
